Where no end group is shown, it is not given here.

This is an account of results in patent publication US10106588B2, “Nucleic acids encoding peptides for treating wounds, anti-angiogenic compounds and uses thereof” (Trustees of Tufts College, priority 2008, dated 2018).

For assay [1], the system named is Human Microvascular Endothelial Cells (HMVEC). The experiment in a line: in vitro angiogenesis assay: tubule formation from HMVEC in Matrigel. The format is cell-based. The conditions noted are these: for induction of angiogenesis in vitro: general statement, no concentration. On the procedure: FIG. 1 is an illustration of a comparison 0.5 nM of the peptide of SEQ ID NO: 1 (“UN1”) to a serum control sample in the formation of tubules from Human Microvascular Endothelial Cells (HMVEC) in Matrigel™ after 3 hours.
FIG. 2 is a graph illustrating a measure of angiogenesis in terms of total process length in Human Microvascular Endothelial Cells (HMVEC) with 0.4 nM and 250 nM of the SEQ ID NO: 1 (“UN1”).
FIG. 3 is a graph illustrating a measure of angiogenesis in terms of total process length in Human Microvascular Endothelial Cells (HMVEC) with 0.4 nM and 250 nM of the peptide of SEQ ID NO: 3 (“UN3”).
(§1) Each of the three peptide sequences were then analyzed for activity via (1) in vitro angiogenesis assays where blood vessel formation in vitro was quantified; (2) in vitro response to injury analyses, including quantitative analysis, of migration in response to injury; and (3) in vitro quantitation of cell proliferation assays. The results of experiments performed are illustrated in FIGS. 1 to 4.
The peptide (SEQ. ID NO: 1 (“UN1”)) was compared to each of VEGF 4 ng/ml and Serum Control in an in vitro angiogenesis analysis.
The peptide (SEQ ID NO: 3 (“UN3”)) was also compared to VEGF and Serum Control in in vitro angiogenesis analysis.

Assay [2] has as its system Normal Human Epithelial Keratinocyte (NHEK). The experiment in a line: in vitro response to injury: keratinocyte migration / relative wound closure. To be noted: for relative wound closure via NHEK migration: 0.5 nM of each peptide, compared to control (FIG. 4); for keratinocyte migration in response to injury in vitro: general statement, no concentration. It counts as cell-based. On the procedure: FIG. 4 is a graph illustrating a measure of relative wound closure via Normal Human Epithelial Keratinocyte (NHEK) migration after exposure to 0.5 nM of each of the peptides of SEQ ID NOs: 1, 2, and 3 (“UN1,” “UN2,” and “UN3” respectively).
as §1
In addition, each of the three peptides of the invention were compared with regard to adult normal human epithelial keratinocyte migration.

On to ELLESYIDR [UN1], for which the “formation of tubules (number and lengths of processes or tubules), in vitro angiogenesis” value in assay [1] (0.5 nM peptide, HMVEC in Matrigel, after 3 hours, versus serum control (FIG. 1)) is “significant induction of in vitro angiogenesis”. Further, the “induction of angiogenesis in vitro” value in assay [1] is “induce angiogenesis in vitro”. Besides, the tubule formation result in assay [1] (in comparison to Serum Control and VEGF 4 ng/ml (FIGS. 1 and 2)) was “induced significant tubule formation”. Also, in assay [1] (in comparison to Serum Control and VEGF 4 ng/ml, 0.4 nM and 250 nM (FIG. 2)), the process length result is “significant tubule formation and process length”. For the same sequence, in assay [2], the “relative wound closure via NHEK migration” value is “significantly better” and the “keratinocyte migration in response to injury in vitro” value is reported as “promote keratinocyte migrations”.

With ELLESYIDRPTATSEYQTFFNPR [UN3], the “induction of angiogenesis in vitro” value in assay [1] is given as “induce angiogenesis in vitro”. The process length result in assay [1] (in comparison to VEGF, peptide at 250 nM (FIG. 3)) is “significant increase in process length”. Further, in assay [1] (in comparison with Serum Control, 0.4 nM and 250 nM (FIG. 3)), the process length result was “significant increase in process length”. For the same sequence, in assay [2], the “relative wound closure via NHEK migration” value is recorded as “significantly better” and the “keratinocyte migration in response to injury in vitro” value is recorded as “promote keratinocyte migrations”.

Take TATSEYQTFFNPR [UN2]: the “relative wound closure via NHEK migration” value in assay [2] was “significantly better”.
